According to US10479752B2, “Deuterated tetramethyl dioic acids, compositions comprising them and uses thereof” (SYNDROMEX LTD., priority 2011, dated 2019):
Marks after values point to notes of the source that are not given here.

Experiments:
[1] = Comparative oral bioavailability / pharmacokinetic study, single intravenous and oral administration; assay type: in vivo; conditions: rat; for C0 / t1/2 / AUCinf / Cmax / tmax: Mean CV (%); for F (oral bioavailability): 50 mg/kg po vs 5 mg/kg iv, Mean (CV %)
Experimental: The pharmacokinetic properties and the oral bioavailability were investigated for the following comparative compounds:
The plasma concentrations of the test items were measured by LC/MS/MS method following single intravenous and oral administration at the doses of 5 mg/kg body weight and 50 mg/kg body weight, respectively. Following intravenous administration small inter-individual variability was observed. Following i.v administration, the highest plasma concentrations were measured at the first sampling time-point (5 minutes) followed by a biphasic continuous decrease. […] The peak concentrations, tmax and the apparent terminal elimination half-lives (t1/2) were the followings:
The vehicle for oral administration was prepared in advance. Preparation: 1 g of carboxymethylcellulose sodium salt was dissolved in 100 ml of Humaqua. The vehicle was prepared at least 2 days prior to formulation of the test items. The vehicle was stored in a refrigerator when not in use.
The required amount of test item was weighed on an analytical balance, transferred into a suitable vial. The test item was dissolved in the required volume of N,N-dimethylacetamide (40% of the final volume). Dissolution of the test item was facilitated by gentle mixing by vortex. The solution was diluted with the suitable volume of PEG400 (40% of the final volume) then Salsol A (20% of the final volume). The final concentration of the test item in the solution was 5 mg/ml. The formulations were prepared freshly on the day of administration.
The required amount of test item was weighed on an analytical balance, transferred into a test tube and mixed with the suitable volume of 1% CMC to achieve the final concentration of 25 mg/ml. The suspension was sonicated twice in bath sonicator for 30 min at 40 C (each round), and left overnight at room temperature. On the following day, the suspension was sonicated again (bath sonicator, 30 min, 40° C.) and further homogenized in a glass/glass homogenizer trying to reaching an homogenous suspension. In spite of the above procedure the quality (homogeneity) of the suspension was not perfect. The suspension was stored at room temperature till administration.
Species/Strain rat/Wistar (Crl:(WI)BR rats)
Number of animals: 24 males (at least 32 for cannulation*)
After the acclimatization period, rats were equipped with a jugular vein cannula under isoflurane anesthesia. The following day the animals were used for the study. In the morning the rats were checked for health status and blood sampling before assigning them into the experimental group.
The terminal elimination phase was defined on the basis of the last 3-5 measured concentration except rat A4. […] The central volume of distribution (Vc: […]) was approximately equal to the total blood volume. The volume of distribution estimated for the steady state situation (Vss: 97.3-143 ml/kg) remained also small compared to the total extracellular fluid volume (˜300 ml/kg). The clearance was also very small for all experimental compound analogues. The smallest clearance was obtained for Compound 7: 23.2 ml/h/kg.

[2] = Chemical and isotopic stability as solutions in DMSO/phosphate buffered saline over 48 hours; conditions: for chemical purity (HPLC area percent) with respect to related substances: all samples through the study; for analyte recovered, yield: summary over the study; for disenrichment of the product (isotopic stability): throughout the time period of the study
Experimental: A 1 mg/mL stock solution (˜55 mL) of deuterated compound in DMSO was prepared. A measured volume of stock (7.5 mL) was dispensed in to each of seven vials. To each vial was added a measured volume of PBS (aq) (3.0 mL), and each vial was agitated to mix. The vials were then placed in a thermostatically-controlled oven set to 37° C. At each time-point (0 h, 2 h, 4 h, 24 h, 48 h) a vial was drawn from the oven. To the vial was added MTBE (9.0 mL), and the mixture was stirred vigorously for 5 min. The layers were separated, and the MTBE layer was agitated with DI water (3.75 mL) for 1 min. The layers were separated. The MTBE layer was dried with MgSO4 for >1 h, and then filtered through a PTFE syringe filter into a tared vial. The solution was concentrated in vacuo to a solid residue, and the mass of the residue was calculated and recorded. To the residue a measured volume of MeOH was added to make (theoretically) a 2.5 mg/mL solution. In this case, 3.00 mL MeOH was added to each vial which theoretically contained 7.5 mg of compound. The content of each solution was measured by quantitative HPLC analysis (by comparison to a standard of known concentration). The MeOH solutions were then recovered, concentrated in vacuo to a solid, and then analyzed by GCMS to determine isotopic enrichment as the methyl ester derivatives.

[3] = DMSO/PBS solution, 37° C., 24 h
[4] = DMSO/PBS solution, 37° C., 48 h
[5] = DMSO/PBS solution, 37° C., 96 h
[6] = Original Sample (before the stability study)

Structure (SMILES) | GC/MS IE (isotopic enrichment) ([2]; DMSO/PBS solution, 37° C., 0 h) | HPLC Area Percentage ([2]; DMSO/PBS solution, 37° C., 0 h) | HPLC Assay ([2]; DMSO/PBS solution, 37° C., 0 h) | GC/MS IE (isotopic enrichment) ([2]; DMSO/PBS solution, 37° C., 2 h) | HPLC Area Percentage ([2]; DMSO/PBS solution, 37° C., 2 h) | HPLC Assay ([2]; DMSO/PBS solution, 37° C., 2 h) | GC/MS IE (isotopic enrichment) ([2]; DMSO/PBS solution, 37° C., 4 h) | HPLC Area Percentage ([2]; DMSO/PBS solution, 37° C., 4 h) | HPLC Assay ([2]; DMSO/PBS solution, 37° C., 4 h) | GC/MS IE (isotopic enrichment) [2, 3] | HPLC Area Percentage [2, 3] | HPLC Assay [2, 3] | GC/MS IE (isotopic enrichment) [2, 4] | HPLC Area Percentage [2, 4] | analyte recovered, yield ([2]; DMSO/PBS solution, 37° C.) | HPLC Area Percentage [2, 6] | HPLC Assay [2, 4] | disenrichment of the product (isotopic stability) ([2]; DMSO/PBS solution, 37° C.) | further results
CC(C)(CCCCCCCCCCC(C)(C)CC(=O)O)CC(=O)O [Compound 1″, reference compound] |  |  |  |  |  |  |  |  |  |  |  |  |  |  |  |  |  |  | C0 ([1]; 5 mg/kg iv dose): 56.1 (6.2%) μg/ml; t1/2 ([1]; 5 mg/kg iv dose): 2.68 (6.0%) h; AUCinf ([1]; 5 mg/kg iv): 124 (23.6%) h * μg/ml; Cmax ([1]; 50 mg/kg po dose): 103 (24.2%) μg/ml; t1/2 ([1]; 50 mg/kg po dose): 2.43 (57.6%) h; tmax ([1]; 50 mg/kg po dose): 3.5 (79.5%) h; F (oral bioavailability) [1]: 69.6 (29.4) %; AUCinf ([1]; 50 mg/kg po): 863 (29.4%) h * μg/ml
[2H]C([2H])(C(=O)O)C(C)(C)CCCCCCCCCCC(C)(C)C([2H])([2H])C(=O)O [Compound 2, 3,3,14,14-Tetramethyl-1,16-[2-D2,15-D2]hexadecanediol acid] | 97.9% | 94.9% | 67.4% | 98.0% | 95.5% | 65.1% | 98.0% | 95.4% | 62.4% | 98.0% | 95.2% | 86.0% | 98.0% | 96.0% | approximately 90% | 97.0% |  |  | GC/MS IE (isotopic enrichment) [2, 5]: 98.0%; HPLC Area Percentage [2, 5]: 96.1%; HPLC Assay [2, 5]: 76.8%; chemical purity (HPLC area percent) with respect to related substances ([2]; DMSO/PBS solution, 37° C.): around 96%
[2H]C([2H])([2H])C(CCCCCCCCCCC(CC(=O)O)(C([2H])([2H])[2H])C([2H])([2H])[2H])(CC(=O)O)C([2H])([2H])[2H] [Compound 3, 3,3,14,14-[D12]Tetramethyl-1,16-hexadecanedoic acid] | 99.9% | 98.0% | 33.3% | 99.9% | 98.8% | 38.4% | 99.9% | 98.4% | 32.4% | 99.9% | 98.6% | 46.0% | 99.9% | 98.5% | about 95% | 100.0% | 50.2% | No disenrichment | 
[2H]C([2H])([2H])C(CCCCCCCCCCCCC(C([2H])([2H])[2H])(C([2H])([2H])[2H])C([2H])([2H])C(=O)O)(C([2H])([2H])[2H])C([2H])([2H])C(=O)O [Compound 4, 3,3,16,16-[D16]Tetramethyl-1,18-octadecanedioic acid] | 98.6% | 97.2% | 70.9% | 98.4% | 97.8% | 65.9% | 98.4% | 97.5% | 53.8% | 98.4% | 96.5% | 93.8% | 98.3% | 97.5% |  | 99.2% | 77.6% |  | stability results overall, in words ([2]; DMSO/PBS solution, 37° C., 48 h study): essentially the same as those for Compound 1; GC/MS IE (isotopic enrichment) [2, 6]: 98.3%
[2H]C([2H])(C(=O)O)C(C)(C)CCCCCCCCCCCCC(C)(C)C([2H])([2H])C(=O)O [Compound 5, 3,3,16,16-tetramethyl-1,18-[2-D2,17-D2]octadecanedioic acid] | 96.3% | 98.4% | 57.0% | 95.9% | 98.0% | 44.6% | 96.0% | 98.5% | 46.3% | 96.0% | 98.4% | 95.3% | 95.5% | 98.0% | about 95% | 100.0% | 213.8%* | No disenrichment | GC/MS IE (isotopic enrichment) [2, 5]: 96.1%; HPLC Area Percentage [2, 5]: 98.7%; HPLC Assay [2, 5]: 79.8%
[2H]C([2H])([2H])C(CCCCCCCCCCCCC(CC(=O)O)(C([2H])([2H])[2H])C([2H])([2H])[2H])(CC(=O)O)C([2H])([2H])[2H] [Compound 6, 3,3,16,16-[D12]Tetramethyl-1,18-octadecanedioic acid] | 99.2% | 98.4% | 39.0% | 99.0% | 98.6% | 33.1% | 99.1% | 97.9% | 35.6% | 99.0% | 98.5% | 39.8% | 99.1% | 98.7% | about 95% | 100.0% | 59.6% | No disenrichment | 
CC(C)(CCCCCCCCCCCCC(C)(C)C(=O)O)C(=O)O [Compound 7″, reference compound] |  |  |  |  |  |  |  |  |  |  |  |  |  |  |  |  |  |  | C0 ([1]; 5 mg/kg iv dose): 74.6 (6.9%) μg/ml; t1/2 ([1]; 5 mg/kg iv dose): 2.18 (19.1%) h; AUCinf ([1]; 5 mg/kg iv): 128 (13.4%) h * μg/ml; Cmax ([1]; 50 mg/kg po dose): 143 (41.3%) μg/ml; t1/2 ([1]; 50 mg/kg po dose): 2.22 (9.9%) h; tmax ([1]; 50 mg/kg po dose): 8 (50.0%) h; F (oral bioavailability) [1]: 124 (28.3) %; AUCinf ([1]; 50 mg/kg po): 1586 (28.3%) h * μg/ml
[2H]C([2H])([2H])C(CCCCCCCCCCCCCCC(C(=O)O)(C([2H])([2H])[2H])C([2H])([2H])[2H])(C(=O)O)C([2H])([2H])[2H] [Compound 8, 2,2,17,17-Tetramethyl(D12)-octadecanedioic acid] | 99.9% | 95.1% | 60.0% | 99.9% | 94.3% | 68.7% | 99.9% | 94.1% | 56.9% | 99.9% | 96.0% | 66.8% | 99.9% | 97.2% | about 85% | 100.0% | 47.7% | No disenrichment | chemical purity (HPLC area percent) with respect to related substances ([2]; DMSO/PBS solution, 37° C.): around 95%; GC/MS IE (isotopic enrichment) [2, 6]: 99.9%
